Results taken from paper PMC9103715, “New Panx-1 Blockers: Synthesis, Biological Evaluation and Molecular Dynamic Studies” (International Journal of Molecular Sciences, 2022).

Key:
Panx-1 channels = biological target: T1, Panx-1 channels (Mus musculus, UniProt Q9JIP4); assay: Voltage clamp on Xenopus laevis oocytes expressing Panx-1 channels; format: cell-based; settings: for inhibition at 50 µM / I (%) inhibition of Panx-1 currents: voltage clamp, Xenopus laevis oocytes expressing Panx-1 channels, 50 µM; for inhibition at 50 µM: read-out: I (%) inhibition of Panx-1 currents; for classification as active or inactive Panx-1 blocker: grouping chosen for the virtual screening
T1 construct: expressed in transfected cells; host or cells: Xenopus laevis oocytes injected with in vitro-transcribed mRNA
Protocol: All new products were screened as Panx-1 blockers at the dose of 50 µM using the Voltage Clamp technique on Xenopus Laevis oocytes expressing Panx-1 channels. The membrane potential of the cells was held at -60 mV and voltage steps to +60 mV were applied to induce membrane currents. To verify that Panx-1 channels carried the currents, in each experiment 100 µM carbenoxolone (CBX) was applied. At this concentration, CBX is known to yield 100% inhibition of Panx-1 activity. If present, leak currents resistant to CBX were subtracted from the total current to assess % inhibition mediated by the tested compounds. Table 1 and Table 2 report the electrophysiological results of naphthalene-2-sulphonic acid derivatives bearing at position 5 an amino- (3a–e, 4 and 5) or amide group (7a–g, 8 and 9) and of compound 13.
Oocytes of Xenopus laevis are prepared as previously described in [39] where the oocytes are isolated from surgically removed ovary segments incubated in an Oocyte Ringe solution Ca2-free (OR2: in mM: 82.5 NaCl, 2.5 KCl, 1.0 MgCl2, […], 1.0 Na2HPO4 e 5.0 HEPES, pH 7.5) with 2 mg/mL of collagenase and antibiotics (10,000 U/mL penicillin and 10 mg/mL of streptomycin) stirred at room temperature for 3 h. After being washed with OR2, oocytes free of follicular cells and that have a uniform pigmentation are chosen and stored in OR2 for 18 °C.
Mouse pannexin1, in pCS2, was linearised with NotI. In vitro transcription was performed with the polymerase SP6, using the Message Machine kit (Ambion). mRNA was quantified by absorbance (260 nm), and the proportion of full-length transcripts was checked by agarose gel electrophoresis. In vitro-transcribed mRNA (~20 nL) was injected into Xenopus laevis oocytes.
Whole-cell membrane currents of oocytes were measured using a two-electrode voltage clamp (Gene Clamp 500B, Axon Instruments/Molecular Devices Sunnyvale, Union City, CA, USA). Glass pipettes were pulled using a P-97 Flaming/Brown type puller (Sutter, Novato, CA, USA). The recording chamber was perfused continuously with frog Ringer (OR) solution (in mM: 82.5 NaCl, 2.5 KCl, 1 CaCl2, 1 MgCl2, 1 Na2HPO4, and 5 HEPES, pH 7.5).
Membrane conductance was determined using voltage pulses, and the pulse-induced current amplitudes were divided by the amplitudes of the voltage steps. For calculation of % inhibition, leak currents were subtracted. Typically, leak currents after the interventions were smaller than at the beginning of the experiment and this smaller value was used for the subtraction to avoid overestimation of the inhibitory effect. For an independent measure of the leak current, oocytes at the end of the experiment were exposed to 100 µM carbenoxolone, which is known to close Panx1 channels 100%. Oocytes expressing Panx1 were held at −60 mV, and pulses to +60 mV were applied to transiently open the channels by means of the voltage gate. Pulses 5 s in duration were applied at 0.1 Hz for current and conductance measurements.

T1 sequence (Q9JIP4 whole entry): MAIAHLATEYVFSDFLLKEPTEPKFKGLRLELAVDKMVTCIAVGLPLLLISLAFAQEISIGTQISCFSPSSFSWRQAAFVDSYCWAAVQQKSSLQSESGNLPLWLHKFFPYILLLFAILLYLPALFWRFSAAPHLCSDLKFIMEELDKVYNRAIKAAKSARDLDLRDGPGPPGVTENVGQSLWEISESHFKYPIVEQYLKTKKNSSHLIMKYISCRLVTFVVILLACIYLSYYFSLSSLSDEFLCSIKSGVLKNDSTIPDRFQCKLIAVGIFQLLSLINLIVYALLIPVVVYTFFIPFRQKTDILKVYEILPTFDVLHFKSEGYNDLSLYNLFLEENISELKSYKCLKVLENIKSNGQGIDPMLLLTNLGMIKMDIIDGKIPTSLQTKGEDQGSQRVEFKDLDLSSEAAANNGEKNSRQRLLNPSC

Row | SMILES | melting point [°C] | inhibition at 50 µM (Panx-1 channels) [%] | other results
1 | CN(Cc1ccccc1)c1cccc2cc(S(=O)(=O)O)ccc12 (hydrate or solvate) [Compound 5, 5-(Benzyl(methyl)amino)naphthalene-2-sulfonic Acid] | > 300 | – | –
2 | O=S(=O)(O)c1ccc2c(NCCCc3ccccc3)cccc2c1 (hydrate or solvate) [Compound 3c, 5-[(3-Phenylpropyl)amino]naphthalene-2-sulfonic acid] | > 300 | – | –
3 | Nc1c(C(=O)O)cnn1-c1ccc(S(=O)(=O)N(Cc2ccccc2)Cc2ccccc2)cc1 [Compound 24, 5-Amino-1-(4-(N,N-dibenzylsulfamoyl)phenyl)-1H-pyrazole-4-carboxylic acid] | 168 to 170 | 42 | I (%) inhibition of Panx-1 currents (Panx-1 channels): 42.7 ± 2.4 (4) %; classification as active or inactive Panx-1 blocker (Panx-1 channels): inactive
4 | O=S(=O)(O)c1ccc2c(NCCc3ccccc3)cccc2c1 (hydrate or solvate) [Compound 3b, 5-(Phenethylamino)naphthalene-2-sulfonic acid] | > 300 | – | –
5 | O=C(Nc1cccc2cc(S(=O)(=O)O)ccc12)c1ccccc1 [Compound 8, 5-Benzamidonaphthalene-2-sulfonic Acid] | – | 15 | I (%) inhibition of Panx-1 currents (Panx-1 channels): 15.3 ± 4.9%; classification as active or inactive Panx-1 blocker (Panx-1 channels): inactive
6 | COC(=O)c1ccc(CNc2cccc3cc(S(=O)(=O)O)ccc23)cc1 [Compound 3f, 5-[(4-(Methoxycarbonyl)benzyl)amino]naphthalene-2-sulfonic acid] | > 300 | – | –
7 | O=C(O)c1cnn(-c2ccc(S(=O)(=O)NCCc3ccccc3)cc2)c1NCCc1ccccc1 [Compound 29, 5-(Phenethylamino)-1-(4-(N-phenethylsulfamoyl)phenyl)-1H-pyrazole-4-carboxylic acid] | 105 to 107 | 25.3 ± 0.9 | –
8 | CCCCN(CCCC)S(=O)(=O)c1ccc(C(=O)Nc2cccc3cc(S(=O)(=O)[O-])ccc23)cc1.[Na+] [Compound 9, Sodium 5-[4-(N,N-dibutylsulfamoyl)benzamido]naphthalene-2-sulfonate] | – | – | I (%) inhibition of Panx-1 currents (Panx-1 channels): 65.3 ± 3.9%
9 | O=C(O)c1ccc(CNc2cccc3cc(S(=O)(=O)O)ccc23)cc1 (hydrate or solvate) [Compound 4, 4-[(6-Sulfonaphthalen-1-yl)aminomethyl]benzoic Acid] | > 300 | – | –
10 | O=S(=O)(O)c1ccc2c(NCc3ccccc3)cccc2c1 (hydrate or solvate) [Compound 3a, 5-(Benzylamino)naphthalene-2-Sulfonic Acid] | > 300 | – | –
11 | O=S(=O)(O)c1ccc2c(NCCCCCc3ccccc3)cccc2c1 [Compound 3e, 5-[(5-Phenylpentyl)amino]naphthalene-2-sulfonic acid] | – | 62 ± 6 | –
12 | O=S(=O)(O)c1ccc2c(NCc3ccccc3)cccc2c1 [Compound 3a, 5-(Benzylamino)naphthalene-2-Sulfonic Acid] | – | 31.7 ± 0.9 | classification as active or inactive Panx-1 blocker (Panx-1 channels): inactive
13 | O=S(=O)(O)c1ccc2c(NCCCCc3ccccc3)cccc2c1 [Compound 3d, 5-[(4-Phenylbutyl)amino]naphthalene-2-sulfonic acid] | – | 47 ± 5.7 | –
14 | O=C(O)c1ccc(CN(Cc2ccc(C(=O)O)cc2)S(=O)(=O)c2ccc(C(=O)O)cc2)cc1 (hydrate or solvate) [Compound 13, 4,4′-{{[(4-Carboxyphenyl)sulfonyl]azanediyl}bis(methylene)}dibenzoic acid] | > 300 | – | –
15 | CN(Cc1ccccc1)c1cccc2cc(S(=O)(=O)O)ccc12 [Compound 5, 5-(Benzyl(methyl)amino)naphthalene-2-sulfonic Acid] | – | 27.3 ± 2.6 | –
16 | O=S(=O)(O)c1ccc2c(NCCc3ccccc3)cccc2c1 [Compound 3b, 5-(Phenethylamino)naphthalene-2-sulfonic acid] | – | 24.3 ± 3.5 | –
17 | O=S(=O)(O)c1ccc2c(NCCCCc3ccccc3)cccc2c1 (hydrate or solvate) [Compound 3d, 5-[(4-Phenylbutyl)amino]naphthalene-2-sulfonic acid] | > 300 | – | –
18 | O=S(=O)(O)c1ccc2c(NCCCCCc3ccccc3)cccc2c1 (hydrate or solvate) [Compound 3e, 5-[(5-Phenylpentyl)amino]naphthalene-2-sulfonic acid] | > 300 | – | –

More lines, main results first:

Row | melting point [°C] | inhibition at 50 µM (Panx-1 channels) [%] | SMILES | other results
19 | > 300 | – | CCN(CC)S(=O)(=O)c1ccc(C(=O)Nc2cccc3cc(S(=O)(=O)O)ccc23)cc1 (hydrate or solvate) [Compound 7a, 5-[4-(N,N-diethylsulfamoyl)benzamido]naphthalene-2-sulfonic acid] | –
20 | 167 to 168 | 21 ± 7.8 | CCCN(CCC)S(=O)(=O)c1ccc(-n2ncc(C(=O)O)c2N)cc1 [Compound 19b, 5-Amino-1-(4-(N,N-dipropylsulfamoyl)phenyl)-1H-pyrazole-4-carboxylic acid] | –
21 | > 300 | – | O=C(Nc1cccc2cc(S(=O)(=O)O)ccc12)c1ccc(S(=O)(=O)N(CCc2ccccc2)Cc2ccccc2)cc1 (hydrate or solvate) [Compound 7f, 5-[4-(N-benzyl-N-phenethylsulfamoyl)benzamido]naphthalene-2-sulfonic acid] | –
22 | > 300 | – | O=C(Nc1cccc2cc(S(=O)(=O)O)ccc12)c1ccc(S(=O)(=O)NCCc2ccccc2)cc1 (hydrate or solvate) [Compound 7g, 5-[4-(N-phenethylsulfamoyl)benzamido]naphthalene-2-sulfonic acid] | –
23 | – | 34 | CCCN(CCC)S(=O)(=O)c1ccc(C(=O)Nc2cccc3cc(S(=O)(=O)O)ccc23)cc1 [Compound 7b, 5-[4-(N,N-dipropylsulfamoyl)benzamido]naphthalene-2-sulfonic acid] | I (%) inhibition of Panx-1 currents (Panx-1 channels): 34.3 ± 5.2%
24 | – | 47.3 ± 6.5 | O=C(Nc1cccc2cc(S(=O)(=O)O)ccc12)c1ccc(S(=O)(=O)NCCc2ccccc2)cc1 [Compound 7g, 5-[4-(N-phenethylsulfamoyl)benzamido]naphthalene-2-sulfonic acid] | classification as active or inactive Panx-1 blocker (Panx-1 channels): inactive
25 | – | 61.3 ± 4.3 | O=C(Nc1cccc2cc(S(=O)(=O)O)ccc12)c1ccc(S(=O)(=O)N(CCc2ccccc2)Cc2ccccc2)cc1 [Compound 7f, 5-[4-(N-benzyl-N-phenethylsulfamoyl)benzamido]naphthalene-2-sulfonic acid] | –
26 | > 300 | – | CCCCN(CCCC)S(=O)(=O)c1ccc(C(=O)Nc2cccc3cc(S(=O)(=O)O)ccc23)cc1 (hydrate or solvate) [Compound 7c, 5-[4-(N,N-dibutylsulfamoyl)benzamido]naphthalene-2-sulfonic acid] | –
27 | > 300 | – | O=C(Nc1cccc2cc(S(=O)(=O)O)ccc12)c1ccc(S(=O)(=O)N(Cc2ccccc2)Cc2ccccc2)cc1 (hydrate or solvate) [Compound 7d, 5-[4-(N,N-dibenzylsulfamoyl)benzamido]naphthalene-2-sulfonic acid] | –
28 | – | 54 ± 2.3 | CCN(CC)S(=O)(=O)c1ccc(C(=O)Nc2cccc3cc(S(=O)(=O)O)ccc23)cc1 [Compound 7a, 5-[4-(N,N-diethylsulfamoyl)benzamido]naphthalene-2-sulfonic acid] | –
29 | > 300 | – | O=C(Nc1cccc2cc(S(=O)(=O)O)ccc12)c1ccc(S(=O)(=O)N(CCc2ccccc2)CCc2ccccc2)cc1 (hydrate or solvate) [Compound 7e, 5-[4-(N,N-diphenethylsulfamoyl)benzamido]naphthalene-2-sulfonic acid] | –
30 | – | 58.3 ± 7.5 | O=C(Nc1cccc2cc(S(=O)(=O)O)ccc12)c1ccc(S(=O)(=O)N(CCc2ccccc2)CCc2ccccc2)cc1 [Compound 7e, 5-[4-(N,N-diphenethylsulfamoyl)benzamido]naphthalene-2-sulfonic acid] | –
31 | > 300 | – | CCCN(CCC)S(=O)(=O)c1ccc(C(=O)Nc2cccc3cc(S(=O)(=O)O)ccc23)cc1 (hydrate or solvate) [Compound 7b, 5-[4-(N,N-dipropylsulfamoyl)benzamido]naphthalene-2-sulfonic acid] | –
